Assay results as given in PubChem BioAssay (NCI).
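Growth conditions: 96-well plates. Treatment: test compound, 48 hours, 5 concentrations. Analysis: linear interpolation between bracketing concentrations; unreached endpoints set to highest concentration. TGI: concentration producing complete growth inhibition.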

How the values were obtained:
Test in all cases: DTP human tumour cell line panel, 48 h
LOX IMVI melanoma = test system: LOX IMVI melanoma
SW-620 colon = test system: SW-620 colon
SK-MEL-28 melanoma = test system: SK-MEL-28 melanoma
HCT-116 colon = test system: HCT-116 colon
NCI-H226 lung = test system: NCI-H226 lung
NCI-H522 lung = test system: NCI-H522 lung
OVCAR-5 ovarian = test system: OVCAR-5 ovarian
SN12C renal = test system: SN12C renal
786-0 renal = test system: 786-0 renal
HCC-2998 colon = test system: HCC-2998 colon
PC-3 prostate = test system: PC-3 prostate
RXF 393 renal = test system: RXF 393 renal
HS 578T breast = test system: HS 578T breast
SK-OV-3 ovarian = test system: SK-OV-3 ovarian
A549 NSCLC = test system: A549 NSCLC
MCF7 breast = test system: MCF7 breast
IGROV1 ovarian = test system: IGROV1 ovarian
SNB-75 CNS = test system: SNB-75 CNS
MDA-N = test system: MDA-N
SF-295 CNS = test system: SF-295 CNS
UACC-257 melanoma = test system: UACC-257 melanoma
CAKI-1 renal = test system: CAKI-1 renal
BT-549 breast = test system: BT-549 breast
COLO 205 colon = test system: COLO 205 colon
MOLT-4 leukemia = test system: MOLT-4 leukemia
OVCAR-8 ovarian = test system: OVCAR-8 ovarian
HOP-62 NSCLC = test system: HOP-62 NSCLC
T-47D breast = test system: T-47D breast
MDA-MB-231 breast = test system: MDA-MB-231 breast
CCRF-CEM leukemia = test system: CCRF-CEM leukemia
UO-31 renal = test system: UO-31 renal
HCT-15 colon = test system: HCT-15 colon
OVCAR-3 ovarian = test system: OVCAR-3 ovarian
HOP-92 NSCLC = test system: HOP-92 NSCLC
MALME-3M melanoma = test system: MALME-3M melanoma
SK-MEL-2 melanoma = test system: SK-MEL-2 melanoma
K-562 leukemia = test system: K-562 leukemia
A498 renal = test system: A498 renal
KM12 colon = test system: KM12 colon
DU-145 prostate = test system: DU-145 prostate
UACC-62 melanoma = test system: UACC-62 melanoma
NCI/ADR-RES ovarian = test system: NCI/ADR-RES ovarian
OVCAR-4 ovarian = test system: OVCAR-4 ovarian
EKVX NSCLC = test system: EKVX NSCLC
MDA-MB-435 = test system: MDA-MB-435
HL-60(TB) leukemia = test system: HL-60(TB) leukemia
SR leukemia = test system: SR leukemia
TK-10 renal = test system: TK-10 renal
U251 CNS = test system: U251 CNS
NCI-H460 lung = test system: NCI-H460 lung
SK-MEL-5 melanoma = test system: SK-MEL-5 melanoma
SF-539 CNS = test system: SF-539 CNS
SNB-19 CNS = test system: SNB-19 CNS
NCI-H23 lung = test system: NCI-H23 lung
HT29 colon = test system: HT29 colon
RPMI-8226 leukemia = test system: RPMI-8226 leukemia
SF-268 CNS = test system: SF-268 CNS
ACHN renal = test system: ACHN renal
M14 melanoma = test system: M14 melanoma

`OCC1OC(c2scc3c(=S)nc[nH]c23)C(O)C1O` (centres undefined) showed a TGI (LOX IMVI melanoma) greater than 82.5 µM, a TGI (SW-620 colon) greater than 93.1 µM and a TGI (SK-MEL-28 melanoma) greater than 100 µM. It also gave a TGI (HCT-116 colon) greater than 84.3 µM, a TGI (NCI-H226 lung) of 85.4 µM and a TGI (NCI-H522 lung) of 82.4 µM. For the same compound, the TGI (OVCAR-5 ovarian) was greater than 100 µM, the TGI (SN12C renal) was greater than 100 µM and the TGI (786-0 renal) was greater than 100 µM. For the same compound, the TGI (HCC-2998 colon) was greater than 97.2 µM, the TGI (PC-3 prostate) was greater than 84.9 µM and the TGI (RXF 393 renal) was greater than 100 µM. The TGI (HS 578T breast) was 6.52 µM, the TGI (SK-OV-3 ovarian) was 35.4 µM and the TGI (A549 NSCLC) was greater than 100 µM. The TGI (MCF7 breast) was 27.3 µM, the TGI (IGROV1 ovarian) was 46.5 µM and the TGI (SNB-75 CNS) was 30.5 µM. It also gave a TGI (MDA-N) greater than 100 µM, a TGI (SF-295 CNS) greater than 92.8 µM and a TGI (UACC-257 melanoma) greater than 46.4 µM. The TGI (CAKI-1 renal) was 63.3 µM, the TGI (BT-549 breast) was greater than 100 µM and the TGI (COLO 205 colon) was 33.5 µM. It also gave a TGI (MOLT-4 leukemia) of 48.4 µM, a TGI (OVCAR-8 ovarian) of 39.6 µM and a TGI (HOP-62 NSCLC) greater than 100 µM. For the same compound, the TGI (T-47D breast) was 9.53 µM, the TGI (MDA-MB-231 breast) was greater than 69.2 µM and the TGI (CCRF-CEM leukemia) was greater than 100 µM. The TGI (UO-31 renal) was greater than 100 µM, the TGI (HCT-15 colon) was greater than 95.6 µM and the TGI (OVCAR-3 ovarian) was 8.33 µM. For the same compound, the TGI (HOP-92 NSCLC) was 6.92 µM, the TGI (MALME-3M melanoma) was greater than 72.9 µM and the TGI (SK-MEL-2 melanoma) was greater than 65.6 µM. It also gave a TGI (K-562 leukemia) greater than 100 µM, a TGI (A498 renal) greater than 54.1 µM and a TGI (KM12 colon) greater than 100 µM. It also gave a TGI (DU-145 prostate) of 19.5 µM, a TGI (UACC-62 melanoma) of 45.6 µM and a TGI (NCI/ADR-RES ovarian) greater than 66.3 µM. The TGI (OVCAR-4 ovarian) was 38.1 µM, the TGI (EKVX NSCLC) was greater than 100 µM and the TGI (MDA-MB-435) was greater than 100 µM. For the same compound, the TGI (HL-60(TB) leukemia) was 21.4 µM, the TGI (SR leukemia) was greater than 100 µM and the TGI (TK-10 renal) was greater than 100 µM. For the same compound, the TGI (U251 CNS) was greater than 100 µM, the TGI (NCI-H460 lung) was greater than 100 µM and the TGI (SK-MEL-5 melanoma) was greater than 73.6 µM. For the same compound, the TGI (SF-539 CNS) was 57.6 µM, the TGI (SNB-19 CNS) was greater than 100 µM and the TGI (NCI-H23 lung) was 92.6 µM. The TGI (HT29 colon) was 70.1 µM, the TGI (RPMI-8226 leukemia) was 58 µM and the TGI (SF-268 CNS) was greater than 100 µM. It also gave a TGI (ACHN renal) greater than 67.8 µM and a TGI (M14 melanoma) of 60.3 µM.

`CCSc1nnc2c(-c3ccccc3)n[nH]c2n1` was tested, and the TGI (LOX IMVI melanoma) was greater than 100 µM, the TGI (SW-620 colon) was greater than 100 µM and the TGI (SK-MEL-28 melanoma) was greater than 100 µM. It also gave a TGI (HCT-116 colon) greater than 100 µM, a TGI (NCI-H226 lung) greater than 100 µM and a TGI (NCI-H522 lung) greater than 100 µM. The TGI (OVCAR-5 ovarian) was greater than 100 µM, the TGI (786-0 renal) was greater than 100 µM and the TGI (PC-3 prostate) was greater than 100 µM. The TGI (RXF 393 renal) was greater than 100 µM, the TGI (HS 578T breast) was greater than 100 µM and the TGI (SK-OV-3 ovarian) was greater than 100 µM. For the same compound, the TGI (A549 NSCLC) was greater than 100 µM, the TGI (MCF7 breast) was greater than 100 µM and the TGI (IGROV1 ovarian) was greater than 100 µM. For the same compound, the TGI (SNB-75 CNS) was greater than 100 µM, the TGI (MDA-N) was greater than 100 µM and the TGI (SF-295 CNS) was greater than 100 µM. It also gave a TGI (UACC-257 melanoma) greater than 100 µM, a TGI (CAKI-1 renal) greater than 100 µM and a TGI (BT-549 breast) greater than 100 µM. For the same compound, the TGI (COLO 205 colon) was greater than 100 µM, the TGI (MOLT-4 leukemia) was greater than 100 µM and the TGI (OVCAR-8 ovarian) was greater than 100 µM. It also gave a TGI (HOP-62 NSCLC) greater than 100 µM, a TGI (T-47D breast) greater than 100 µM and a TGI (MDA-MB-231 breast) greater than 100 µM. The TGI (CCRF-CEM leukemia) was greater than 100 µM, the TGI (UO-31 renal) was greater than 100 µM and the TGI (HCT-15 colon) was greater than 100 µM. For the same compound, the TGI (OVCAR-3 ovarian) was greater than 100 µM, the TGI (HOP-92 NSCLC) was greater than 100 µM and the TGI (SK-MEL-2 melanoma) was greater than 100 µM. For the same compound, the TGI (K-562 leukemia) was greater than 100 µM, the TGI (KM12 colon) was greater than 100 µM and the TGI (DU-145 prostate) was greater than 100 µM. The TGI (UACC-62 melanoma) was greater than 100 µM, the TGI (NCI/ADR-RES ovarian) was greater than 100 µM and the TGI (OVCAR-4 ovarian) was greater than 100 µM. It also gave a TGI (EKVX NSCLC) greater than 100 µM, a TGI (MDA-MB-435) greater than 100 µM and a TGI (HL-60(TB) leukemia) greater than 100 µM. It also gave a TGI (SR leukemia) greater than 100 µM, a TGI (TK-10 renal) greater than 100 µM and a TGI (U251 CNS) greater than 100 µM. The TGI (NCI-H460 lung) was greater than 100 µM, the TGI (SK-MEL-5 melanoma) was greater than 100 µM and the TGI (SF-539 CNS) was greater than 100 µM. For the same compound, the TGI (SNB-19 CNS) was greater than 100 µM, the TGI (NCI-H23 lung) was greater than 100 µM and the TGI (HT29 colon) was greater than 100 µM. It also gave a TGI (RPMI-8226 leukemia) greater than 100 µM, a TGI (SF-268 CNS) greater than 100 µM and a TGI (ACHN renal) greater than 100 µM. For the same compound, the TGI (M14 melanoma) was greater than 100 µM.
